# Reference: patent US20250387388A1, “COMPOUND AS TRK INHIBITOR AND/OR RET INHIBITOR AND USE THEREOF” (Medinno Pharmaceutical Technology (Zhuhai) Co., Ltd., priority 2022, published 2025)
# Columns and labels:
# [1] = test system: atopic dermatitis/eczema in mice; experiment: Atopic dermatitis/eczema model in mice (dust mite extract + SEB); type: in vivo
# adipocytes = experiment: Lipolysis in vitro in adipocytes; type: cell-based, C57BL/6 mouse; details: 5 μM
# Protocol: Newly extracted neonatal C57BL/6 mouse skin fibroblasts (specific operational steps can be found in the literature: Cell Reports (2023)/doi: 10.1016/j.celrep.2023.112647) were plated and cultured in petri dishes until the cell density reached the highest and contact inhibition. Differentiation medium (DMEM+10% FBS+1× antibiotic; specific formula can be found in the literature: Cell Reports (2023)/doi: 10.1016/j.celrep.2023.112647) was then added to induce the generation of new adipocytes. […] The control group received an equal volume of DMSO. The transformation of adipocytes was observed using a Leica inverted phase contrast microscope.
# [2] = test system: allergic rhinitis model in mice; experiment: Allergic rhinitis model in mice (OVA); type: in vivo, BALB/C mice; details: nasal drops twice a day, 7-day treatment; MDI-1233 10 mg/kg, MDI-1228 3 mg/kg, MDI-1288 3 mg/kg; fluticasone propionate positive control
# Protocol: 42-49 day-old BALB/C mice (Manufacturer: Liaoning Changsheng Biotechnology Co., Ltd., License Number: SCXK(therapeutic)2015-0001), both male and female, were reared under conventional diet, at a temperature of 20 to 26° C., and a humidity of 40% to 70%. Animal grouping and modeling: • 1. Blank control group (no treatment) • 2. Allergic rhinitis group (vehicle treatment: saline containing 0.2% Tween 80) • 3. Allergic rhinitis+compound MDI-1233: 1 mg/kg • 4. Allergic rhinitis+compound MDI-1233: 3 mg/kg • 5. Allergic rhinitis+compound MDI-1233: 10 mg/kg • 6. Allergic rhinitis+compound MDI-1228: 3 mg/kg • 7. Allergic rhinitis+compound MDI-1288: 3 mg/kg • 8. Allergic rhinitis+positive control group (Fluticasone propionate, GlaxoSmithKline, E88D
# The preparation of an AR model in mice involved sensitizing and challenging BALB/c mice with ovalbumin (OVA) to simulate an acute symptoms caused by natural exposure to an allergen. The experimental animals were weighed and separated by gender. Sensitization was performed on days 1, 5, 9, and 12. From day 13, a daily challenge was carried out for 7 consecutive days. After the last challenge, behavior of the mice was observed and scored. The sensitization method involved intraperitoneal injection of an OVA (Sigma, A5503-1G) suspension in 50 μg/ml in which the OVA suspension was prepared by dissolving 500 μg of ovalbumin and 50 mg of AL(OH)3 (CAS 21645-51-2) into 10 ml of normal saline, pH 7.4, with 200 μl injected per mouse. […] On day 12, a single nasal challenge with 10% OVA was performed (PBS was used for the control group). Scoring was conducted according to the table below, using a superposition method to calculate the total score. A total score greater than 5 was considered as successful. Subsequent experiments were conducted after the modeling was deemed successful.
# From day 13, compound administration and challenge were conducted. The compound administration method involved calculating the nasal drops volume according to the mouse's body weight and group requirements, and dissolving the compounds MDI-1233, MDI-1228, MDI-1288 into normal saline containing 0.2% Tween 80 at specific concentrations. The administration was given 30 minutes before the challenge, twice a day. The positive control treatment involved administering nasal drop once (10 μl per side) 30 minutes before OVA nasal stimulation, twice a day. Thirty minutes after the second drug administration, a 10% OVA challenge was conducted, and the amount of nasal discharge, sneezing, and nose scratching were observed and recorded within 30 minutes after each challenge and then scored. The control group was treated with normal saline nasal drops.
# After the rhinitis modeling was completed and the scores were stable, mice of each group were anesthetized and sacrificed after a 20-day scoring. Samples were collected, and peripheral serum was obtained by collecting whole blood, and standing it at room temperature for 1 hour and then centrifuging it to collect the supernatant for ELISA detection; nasal mucosa was taken for HE staining (fixed with 10% formalin); and the supernatant of nasal lavage fluid was taken for ELISA detection.
# (1) HE Staining: The tissue was rinsed with running water for several hours, dehydrated through a series of ethanol solutions (70%, 80%, 90%), and then treated with a mixture of pure alcohol and xylene for 15 minutes, followed by xylene I for 15 minutes and xylene I1 for 15 minutes (until transparent). The tissue was then placed in a mixture of xylene and paraffin at a volume ratio of 1:1 for 15 minutes, followed by immersion with paraffin I and paraffin II each for 50-60 minutes. The tissue was embedded in paraffin and sectioned, and the sections were spreaded, dried, dewaxed and hydrated in distilled water. […]
smiles,measurement,setting,value
"CCc1cc(O)c(F)cc1-c1ccc2c(-c3nc4c([nH]3)CN(C(=O)N3CC[C@H](O)C3)C4)n[nH]c2c1 [MDI-1228, (S)-(2-(6-(2-ethyl-5-fluoro-4-hydroxyphenyl)-1H-indazol-3-yl)-4,6-dihydropyrrolo[3,4-d]imidazol-5-(1H)-yl)(3-hydroxylpyrrolidin-1-yl)ketone]",Skin HE staining and toluidine blue staining,[1]; 0.5% MDI-1228 gel,a decrease in mast cells and inflammatory cells compared to the model group
same,Skin HE staining and toluidine blue staining,[1]; 1% and 3% MDI-1228 gel,relatively significant therapeutic effects
same,Reduction in area under the curve (AUC) of the dermatitis scores vs. model group,[1]; 3% MDI-1228 gel,23.75%
same,Number of Scratch Incidents (±SE),"[1]; Day 1, 0.5% MDI-1228 gel",24.0 ± 3.60
same,Scratch Duration (±SE),"[1]; Day 1, 0.5% MDI-1228 gel",241.00 ± 48.16
same,"Skin Erythema, Hemorrhage, Eruption, and Desquamation (Lesion Scoring) (Mean ± SE)","[1]; Day 1, 0.5% MDI-1228 gel 0.7 g gel/kg twice a day",4.13 ± 0.55
same,Number of Scratch Incidents (±SE),"[1]; Day 1, 1% MDI-1228 gel",20.38 ± 2.08
same,Scratch Duration (±SE),"[1]; Day 1, 1% MDI-1228 gel",211.50 ± 22.88
same,"Skin Erythema, Hemorrhage, Eruption, and Desquamation (Lesion Scoring) (Mean ± SE)","[1]; Day 1, 1% MDI-1228 gel 1 g gel/kg twice a day",4.75 ± 0.75
same,Number of Scratch Incidents (±SE),"[1]; Day 1, 3% MDI-1228 gel",23.00 ± 2.46
same,Scratch Duration (±SE),"[1]; Day 1, 3% MDI-1228 gel",288.00 ± 19.68
same,"Skin Erythema, Hemorrhage, Eruption, and Desquamation (Lesion Scoring) (Mean ± SE)","[1]; Day 1, 3% MDI-1228 gel 1 g gel/kg twice a day",3.38 ± 0.42
same,"Skin Erythema, Hemorrhage, Eruption, and Desquamation (Lesion Scoring) (Mean ± SE)","[1]; Day 4, 0.5% MDI-1228 gel 0.7 g gel/kg twice a day",2.88 ± 0.64
same,"Skin Erythema, Hemorrhage, Eruption, and Desquamation (Lesion Scoring) (Mean ± SE)","[1]; Day 4, 1% MDI-1228 gel 1 g gel/kg twice a day",3.25 ± 0.49
same,"Skin Erythema, Hemorrhage, Eruption, and Desquamation (Lesion Scoring) (Mean ± SE)","[1]; Day 4, 3% MDI-1228 gel 1 g gel/kg twice a day",2.63 ± 0.46
same,"Skin Erythema, Hemorrhage, Eruption, and Desquamation (Lesion Scoring) (Mean ± SE)","[1]; Day 7, 0.5% MDI-1228 gel 0.7 g gel/kg twice a day",2.13 ± 0.58
same,"Skin Erythema, Hemorrhage, Eruption, and Desquamation (Lesion Scoring) (Mean ± SE)","[1]; Day 7, 1% MDI-1228 gel 1 g gel/kg twice a day",2.13 ± 0.30
same,"Skin Erythema, Hemorrhage, Eruption, and Desquamation (Lesion Scoring) (Mean ± SE)","[1]; Day 7, 3% MDI-1228 gel 1 g gel/kg twice a day",1.75 ± 0.31
same,Number of Scratch Incidents (±SE),"[1]; Day 14, 0.5% MDI-1228 gel",30.38 ± 3.79
same,Scratch Duration (±SE),"[1]; Day 14, 0.5% MDI-1228 gel",165.63 ± 27.56
same,"Skin Erythema, Hemorrhage, Eruption, and Desquamation (Lesion Scoring) (Mean ± SE)","[1]; Day 14, 0.5% MDI-1228 gel 0.7 g gel/kg twice a day",1.25 ± 0.36
same,Number of Scratch Incidents (±SE),"[1]; Day 14, 1% MDI-1228 gel",28.13 ± 2.05
same,Scratch Duration (±SE),"[1]; Day 14, 1% MDI-1228 gel",182.0 ± 25.39
same,"Skin Erythema, Hemorrhage, Eruption, and Desquamation (Lesion Scoring) (Mean ± SE)","[1]; Day 14, 1% MDI-1228 gel 1 g gel/kg twice a day",1.38 ± 0.18
same,Number of Scratch Incidents (±SE),"[1]; Day 14, 3% MDI-1228 gel",23.75 ± 2.62
same,Scratch Duration (±SE),"[1]; Day 14, 3% MDI-1228 gel",173.13 ± 19.26
same,"Skin Erythema, Hemorrhage, Eruption, and Desquamation (Lesion Scoring) (Mean ± SE)","[1]; Day 14, 3% MDI-1228 gel 1 g gel/kg twice a day",1.63 ± 0.26
same,Effect on inflammation in atopic dermatitis/eczema (conclusion),[1]; MDI-1228 gel preparation,significant inhibitory effects on inflammation
same,IFN-γ level in serum,"[1]; MDI-1228 gel, vs. model group",significantly increased
same,IL-4 level in serum,"[1]; MDI-1228 gel, vs. model group",significantly reduced
same,IL-13 level in serum,"[1]; MDI-1228 gel, vs. model group",significantly reduced
same,Behavioral analysis (scratch incidents and scratch duration),"[1]; MDI-1228 high-dose (3% gel), tofacitinib 10 mg/kg",certain therapeutic effect in the behavioral analysis
same,"Clinical lesion scoring, therapeutic effect","[1]; gels with 0.5%, 1%, 3% MDI-1228, positive control Tofacitinib 10 mg/kg, 14 days",therapeutic effects similar to the positive control drug
same,TNF-α level in serum,"[1]; high, medium, and low dose MDI-1228 gel, vs. model group",a reduction in TNF-α levels
same,Lipolysis of differentiated mature adipocytes (phase contrast images),adipocytes,promotes the lipolysis of adipocytes into smaller lipid droplets
same,Rhinitis behavioral scoring,[2],did not significantly inhibit the allergic response in male mice
CCc1cc(O)c(F)cc1-c1ccc2c(-c3nc4c([nH]3)CN(C(=O)NCC(O)CCl)C4)n[nH]c2c1 (stereo not shown) [MDI-1288],Rhinitis behavioral scoring,[2],showed inhibitory effects on both male and female mouse rhinitis models
